Data from PubChem BioAssay (NCI).
≈ marks a conversion by molar mass, not a printed value.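 Values below derive from 48-hour exposures of cells grown in 96-well plates, with endpoints linearly interpolated between the two concentrations bracketing the appropriate inhibition level. Abbreviation: GI50, concentration required for 50% inhibition of growth. The concentration for full growth arrest is given as TGI.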 Calls of active or inactive are those of the source. No stated cut-off is given here; in the data, active means GI50 below about 0.43 µM; inactive means the rest.

The compounds below were run on HOP-18 NSCLC (assay: NCI tumour cell line growth inhibition, 48 h).
In the case of `CCc1ccccc1NC(=O)C(=O)C(C(=O)c1ccc(OC)cc1)c1ccc(OC)cc1` (stereo not given), the TGI is reported as > 100 µM. With `COc1ccc(C2C(Cl)C(=O)N2n2cnc3ccccc3c2=O)cc1OC` (stereo not given) the TGI was > 100 µM. `COC(=O)c1nc(NN)[nH]c(=O)c1CCCCCc1c(C(=O)OC)[nH]c(NN)cc1=O` was tested, and the TGI was > 100 µM. With `COC(=O)C1=CCON(c2ccccc2)C1c1ccccc1` (stereo not given) the TGI was > 100 µM. With `CSc1nc2c(c(O)c(C)c(=O)n2C2OC(COC(C)=O)C(OC(C)=O)C(OC(C)=O)C2OC(C)=O)c(=O)n1C` (stereo not given) the TGI was > 100 µM. For `CSc1ccc(/C=C2\CNC/C(=C\c3ccc(SC)cc3)C2=O)cc1`, the GI50 was 111 µM, the TGI was > 371 µM and the outcome was “inactive”. With `COc1ccc([C@H]2CC(=O)N3CCCC3N2)cc1` (stereo not given in full) the TGI was > 100 µM. With `Cc1cc(C)c2c(c1)CN1CN2Cc2cc(C)cc(C)c21` the TGI was 80.3 µM. For `CC1(C)C(=O)C(O)=CC2C1=CCC1C2(C)C(=O)CC2(C)C(C(C)(O)C(=O)CC(O)C(C)(C)O)C(O)CC12C` (stereo not given), the TGI was 12.3 µM. In the case of `CC12CC3(C)CC(C)(C1)CC(N=[N+]=[N-])(C2)C3`, the TGI is reported as > 100 µM. In the case of `O=C1c2ccccc2N2OC3(N4CCCC4)CCCC3C12c1ccccc1` (stereo not given), the TGI is reported as > 100 µM. For `C=C(C)C1CC2C(C)=C(OC(C)=O)C1n1c(=O)c3cc4ccccc4cc3c(=O)n12` (stereo not given), the TGI was > 100 µM. In the case of `CC(C)N(C(C)C)[PH+]1O[PH+](N(C(C)C)C(C)C)O[PH+](N(C(C)C)C(C)C)O[PH+](N(C(C)C)C(C)C)O[PH+](N(C(C)C)C(C)C)O1.[C-]#[O+].[C-]#[O+].[C-]#[O+].[C-]#[O+].[C-]#[O+].[C-]#[O+].[C-]#[O+].[Cr].[Cr]` (stereo not given), the GI50 is reported as > 100 µM and the TGI is reported as > 100 µM. In the case of `COC1/C=C/OC2(C)Oc3c(C)c(O)c4c(c3C2=O)C(=O)C=C(NC(=O)/C(C)=C\C=C\C(C)C(OC=O)C(C)C(O)C(C)C(OC(C)=O)C1C)C4=O` (stereo not given), the TGI is reported as 15.8 µM. With `COC(=O)c1ccc2c(c1)C(NC(C)=O)CCc1cc(OC)c(OC)c(OC)c1-2` (stereo not given) the TGI was > 100 µM. In the case of `O=C(C(=O)c1ccc(Cc2ccc(C(=O)C(=O)c3ccccc3)cc2)cc1)c1ccccc1`, the TGI is reported as > 100 µM. `Clc1ccc([O][In]([O]c2ccc(Cl)cn2)[O]c2ccc(Cl)cn2)nc1` was tested, and the GI50 was > 100 µM and the TGI was > 100 µM. For `Fc1cccc(Cl)c1C1SCc2nc3ccccc3n21` (stereo not given), the TGI was > 100 µM. With `Cc1cc(Cl)ccc1NC(=O)C(=O)Cc1nc2ccc(C(=O)c3ccccc3)cc2[nH]c1=O` the TGI was > 100 µM. `COc1cc(C2c3cc4c(cc3[C@@H](Nc3ccc(N(C)C)cc3)[C@H]3COC(=O)C23)OCO4)cc(OC)c1O` (stereo not given in full) showed a TGI of 17 µM.

The compounds below were run on SN12K1 renal (assay: NCI tumour cell line growth inhibition, 48 h).
For `CSc1ccc(/C=C2\CNC/C(=C\c3ccc(SC)cc3)C2=O)cc1`, the GI50 was 15.5 µg/mL (≈ 42.1 µM) and the TGI was 103 µg/mL (≈ 280 µM).

The compounds below were run on P388 leukemia (assay: NCI tumour cell line growth inhibition, 48 h).
In the case of `CSc1ccc(/C=C2\CNC/C(=C\c3ccc(SC)cc3)C2=O)cc1`, the GI50 is reported as 150 µg/mL (≈ 408 µM) and the TGI is reported as 150 µg/mL (≈ 408 µM).

These compounds were tested on P388/ADR leukemia (assay: NCI tumour cell line growth inhibition, 48 h).
Compound `CSc1ccc(/C=C2\CNC/C(=C\c3ccc(SC)cc3)C2=O)cc1` has a GI50 of 150 µg/mL (≈ 408 µM) and a TGI of 150 µg/mL (≈ 408 µM).
